Assay results: US7202270B2, “Convenient stable non-hygroscopic crystalline solid forms of racemic and chiral LA-plus salts: process for their manufacture and uses” (priority 2003, dated 2007)
Counter-ions that a name gives are not always drawn.

Experiments:
[1] = Antioxidant assay by DPPH radical scavenging activity; type: biochemical
Tyrosinase = test: Activity on Tyrosinase (inhibition); type: biochemical
Source text: Tyrosinase inhibition is one of the established in vitro methods of evaluating the skin fairness property.

Collagenase = Collagenase inhibition; type: biochemical
Elastase = Elastase inhibition; type: biochemical
Propionibacterium acnes = test: Inhibition of P. acnes (zone of inhibition); type: cell-based; settings: for Zone of inhibition: P. acnes
Solubility data = type: physicochemical; settings: Results in gm/dl; 35 to 40° C.
Protocol: Results in gm/dl; tests were done at 35 to 40° C. temperature.

[2] = Hygroscopicity of the solid salt; type: physicochemical; settings: solid salt form
[3] = Absence of sun light, Conc. 6.6 mg
[4] = Exposure to sun light for 5 minutes, Conc. 55 μg

Compound | IC50 for Collagenase (Collagenase) | IC50 for Elastase (Elastase) | Minimum concentration showing inhibition of P. acnes (Propionibacterium acnes) | Zone of inhibition (Propionibacterium acnes; Conc. of the sample 0.5%) | Zone of inhibition (Propionibacterium acnes; Conc. of the sample 1%) | Zone of inhibition (Propionibacterium acnes; Conc. of the sample 2%) | Zone of inhibition (Propionibacterium acnes; Conc. of the sample 5%) | Zone of inhibition (Propionibacterium acnes; Conc. of the sample 10%) | Solubility, ETHANOL (95%) (Solubility data) | Solubility, PROPYLENE GLYCOL (Solubility data) | Solubility, WATER (D. D.) (Solubility data) | % Scavenging (DPPH) [1, 4] | Tyrosinase % Inhibition (Tyrosinase; Conc. 120 μg) | melting point | other results
O=C(O)CCCCC1CCSS1 (racemic) [α-Lipoic acid, Alpha Lipoic acid, reference compound] | 1.6 mg/mL | 1.4 mg/mL | 5% | 0 mm | 0 mm | 0 mm | 7 mm | 8 mm |  |  |  |  |  |  | % Scavenging (DPPH) ([1]; Absence of sun light, Conc. 6 mg): 50%; % Scavenging (DPPH) ([1]; Exposure to sun light for 5 minutes, Conc. 45 μg): 50%; Tyrosinase % Inhibition (Tyrosinase; Conc. 100 μg): 51%
CCC[C@@H]1C[C@@H](C(=O)N[C@@H]([C@H]2O[C@H](SC)[C@H](O)[C@@H](O)[C@H]2O)[C@H](C)Cl)N(C)C1 [Clindamycin, reference compound] |  |  |  | 0 mm | 7 mm | 9 mm | 15 mm | 20 mm |  |  |  |  |  |  | 
O=C1O[C@H]([C@@H](O)CO)C(O)=C1O [Ascorbic acid, reference compound] |  |  |  |  |  |  |  |  |  |  |  |  |  |  | % Scavenging (DPPH) ([1]; Absence of sun light, Conc. 6 μg): 71%; % Scavenging (DPPH) ([1]; Exposure to sun light for 5 minutes, Conc. 6 μg): 59%
CN(C)CCNC(=O)CCCCC1CCSS1.O=C(O)/C=C\C(=O)O (stereo not drawn) [R(+)LA Plus maleate, R-(+)-Maleate salt of N-[2-(dimethylamino)ethyl]-1,2-dithiolane-3-pentanamide] | 1.6 mg/mL | 1.4 mg/mL | 1.0% | 0 mm | 8 mm | 10 mm | 12 mm | 15 mm | 6.84% | 10% | 60% | 47% | 58.6% | 125 to 127 °C | % Scavenging (DPPH) [1, 3]: 49%
CN(C)CCNC(=O)CCCCC1CCSS1.Cl (racemic) [(±)-LA-Plus hydrochloride, N-[2-(dimethylamino)ethyl]-1,2-dithiolane-3-pentanamide monohydrochloride] |  |  |  |  |  |  |  |  |  |  |  |  |  |  | Hygroscopicity [2]: hygroscopic
CN(C)CCNC(=O)CCCCC1CCSS1 (racemic) [LA Plus maleate, (±)-Maleate salt of N-[2-(dimethylamino)ethyl]-1,2-dithiolane-3-pentanamide] | 1.6 mg/mL | 1.4 mg/mL | 1.0% | 0 mm | 7 mm | 8 mm | 9 mm | 11 mm | 7.35% | 13% | 60% | 53% | 58% |  | % Scavenging (DPPH) [1, 3]: 54%
CN(C)CCNC(=O)CCCCC1CCSS1.O=C(O)/C=C/C(=O)O (racemic) [LA Plus fumarate, (±)-Fumarate salt of N-[2-(dimethylamino)ethyl]-1,2-dithiolane-3-pentanamide] | 1.6 mg/mL | 1.4 mg/mL | 2% | 0 mm | 0 mm | 7 mm | 8 mm | 10 mm | 51% | 23% | 100% | 50% | 53% | 76 to 78 °C | % Scavenging (DPPH) ([1]; Absence of sun light, Conc. 6.2 mg): 57%
CN(C)CCNC(=O)CCCCC1CCSS1 (racemic) (as salt: maleate) [LA Plus maleate, (±)-Maleate salt of N-[2-(dimethylamino)ethyl]-1,2-dithiolane-3-pentanamide] |  |  |  |  |  |  |  |  |  |  |  |  |  | 125 to 127 °C | 
